Assay results taken from PubChem BioAssay AID1259407 (Chemical Carcinogenesis Research Information System (CCRIS), 2018).
The source made the active and inactive calls. How the calls were made is not given here.

Tested on: CCRIS mutagenicity, Ames/micronucleus/aberration tests
Experiment: CCRIS mutagenicity studies
Conditions: Test System: AMES SALMONELLA TYPHIMURIUM, Method: PREINCUBATION

Measured: mutagenic call

C[C@H](CCC(=O)O)[C@H]1CC[C@H]2[C@@H]3CCc4cc(O)ccc4[C@H]3CC[C@]12C
inactive: Strain/Indicator: TA98, Metabolic Activation: NONE inactive; negative | Strain/Indicator: TA98 inactive; negative | Strain/Indicator: TA100 inactive; negative
